# What was measured:
# [1] = target: T1, Muscarinic acetylcholine receptor M1 (Homo sapiens, UniProt P11229); experiment: Binding affinity to muscarinic M1 receptor (unknown origin)
# T1 sequence (P11229 whole entry): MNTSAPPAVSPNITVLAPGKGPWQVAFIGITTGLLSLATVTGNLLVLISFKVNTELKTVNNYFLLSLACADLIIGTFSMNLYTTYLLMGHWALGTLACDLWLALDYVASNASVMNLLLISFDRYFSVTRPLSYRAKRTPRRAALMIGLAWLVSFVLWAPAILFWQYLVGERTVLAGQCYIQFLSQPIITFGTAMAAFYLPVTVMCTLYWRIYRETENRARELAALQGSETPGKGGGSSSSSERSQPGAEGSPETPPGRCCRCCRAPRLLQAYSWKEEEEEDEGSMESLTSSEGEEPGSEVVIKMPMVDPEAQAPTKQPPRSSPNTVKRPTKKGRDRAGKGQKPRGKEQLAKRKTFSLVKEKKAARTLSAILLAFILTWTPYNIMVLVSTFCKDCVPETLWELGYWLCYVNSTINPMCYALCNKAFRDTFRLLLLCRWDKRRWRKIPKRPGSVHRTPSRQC
# [2] = target: 5-hydroxytryptamine receptor 2A (Homo sapiens, UniProt P28223); experiment: Binding affinity to 5HT2A receptor (unknown origin)
# U-937 = experiment: Toxicity in human U937 cells assessed as phospholipidosis first effect concentration by Nile red based fluorescence assay; assay type: cell-based
# [3] = target: Melanin-concentrating hormone receptor 1 (Homo sapiens, UniProt Q99705); experiment: Displacement of [125I-MCH] from human MCH receptor 1 expressed in CHO cell membranes by scintillation counting method
# hERG (KCNH2) [4] = target: T2, hERG (KCNH2) (Homo sapiens, UniProt Q12809); experiment: Inhibition of human ERG at 1 uM by patch clamp assay
# CHO [5] = experiment: Selectivity index, ratio of IC50 for muscarinic M1 receptor (unknown origin) to IC50 for human MCH receptor 1 expressed in CHO cell membranes; assay type: cell-based
# CHO [6] = experiment: Selectivity index, ratio of IC50 for 5HT2A receptor (unknown origin) to IC50 for human MCH receptor 1 expressed in CHO cell membranes; assay type: cell-based
# [7] = Dissociation constant, pKa of the compound; assay type: physicochemical
# [8] = Tmax in Wistar rat at 11.9 umol/kg, po; assay type: ADME, organism-based; details: in vivo
# [9] = Mean residence time in Wistar rat at 11.9 umol/kg, po; assay type: ADME, organism-based; details: in vivo
# Rattus norvegicus [10] = experiment: AUC in Wistar rat at 11.9 umol/kg, po; assay type: ADME, organism-based; details: in vivo
# Rattus norvegicus [11] = experiment: Dose normalized Cmax in Wistar rat at 11.9 umol/kg, po; assay type: ADME, organism-based; details: in vivo
# Rattus norvegicus [12] = experiment: Dose normalized Cmax in Wistar rat at 10.9 umol/kg, po; assay type: ADME, organism-based; details: in vivo
# Rattus norvegicus [13] = experiment: AUC in Wistar rat at 10.9 umol/kg, po; assay type: ADME, organism-based; details: in vivo
# [14] = Mean residence time in Wistar rat at 10.9 umol/kg, po; assay type: ADME, organism-based; details: in vivo
# [15] = Tmax in Wistar rat at 10.9 umol/kg, po; assay type: ADME, organism-based; details: in vivo
# [16] = target: Voltage-gated inwardly rectifying potassium channel KCNH2 (Homo sapiens, UniProt Q12809); experiment: Inhibition of human ERG by patch clamp assay
# hERG (KCNH2) [17] = target: T2, hERG (KCNH2); experiment: Inhibition of human ERG at 10 uM by patch clamp assay
# Rattus norvegicus [18] = experiment: AUC in Wistar rat at 6.7 umol/kg, po; assay type: ADME, organism-based; details: in vivo
# [19] = Mean residence time in Wistar rat at 6.7 umol/kg, po; assay type: ADME, organism-based; details: in vivo
# [20] = Tmax in Wistar rat at 6.7 umol/kg, po; assay type: ADME, organism-based; details: in vivo
# Rattus norvegicus [21] = experiment: Dose normalized Cmax in Wistar rat at 6.7 umol/kg, po; assay type: ADME, organism-based; details: in vivo
# Sequence of 5-hydroxytryptamine receptor 2A (P28223 whole entry): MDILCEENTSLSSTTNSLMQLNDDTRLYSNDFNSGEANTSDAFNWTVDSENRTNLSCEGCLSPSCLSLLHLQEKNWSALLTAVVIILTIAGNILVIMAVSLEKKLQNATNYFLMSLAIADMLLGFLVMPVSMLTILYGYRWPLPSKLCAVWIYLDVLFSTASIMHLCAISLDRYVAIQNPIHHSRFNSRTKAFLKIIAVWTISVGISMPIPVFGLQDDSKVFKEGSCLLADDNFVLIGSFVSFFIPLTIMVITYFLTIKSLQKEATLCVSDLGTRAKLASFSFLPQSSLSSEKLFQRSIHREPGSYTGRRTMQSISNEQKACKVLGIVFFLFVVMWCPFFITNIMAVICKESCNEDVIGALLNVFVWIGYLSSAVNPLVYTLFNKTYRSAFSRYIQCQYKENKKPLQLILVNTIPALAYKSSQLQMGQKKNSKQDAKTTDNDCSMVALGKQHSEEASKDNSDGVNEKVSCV
# T2 sequence (Q12809 whole entry): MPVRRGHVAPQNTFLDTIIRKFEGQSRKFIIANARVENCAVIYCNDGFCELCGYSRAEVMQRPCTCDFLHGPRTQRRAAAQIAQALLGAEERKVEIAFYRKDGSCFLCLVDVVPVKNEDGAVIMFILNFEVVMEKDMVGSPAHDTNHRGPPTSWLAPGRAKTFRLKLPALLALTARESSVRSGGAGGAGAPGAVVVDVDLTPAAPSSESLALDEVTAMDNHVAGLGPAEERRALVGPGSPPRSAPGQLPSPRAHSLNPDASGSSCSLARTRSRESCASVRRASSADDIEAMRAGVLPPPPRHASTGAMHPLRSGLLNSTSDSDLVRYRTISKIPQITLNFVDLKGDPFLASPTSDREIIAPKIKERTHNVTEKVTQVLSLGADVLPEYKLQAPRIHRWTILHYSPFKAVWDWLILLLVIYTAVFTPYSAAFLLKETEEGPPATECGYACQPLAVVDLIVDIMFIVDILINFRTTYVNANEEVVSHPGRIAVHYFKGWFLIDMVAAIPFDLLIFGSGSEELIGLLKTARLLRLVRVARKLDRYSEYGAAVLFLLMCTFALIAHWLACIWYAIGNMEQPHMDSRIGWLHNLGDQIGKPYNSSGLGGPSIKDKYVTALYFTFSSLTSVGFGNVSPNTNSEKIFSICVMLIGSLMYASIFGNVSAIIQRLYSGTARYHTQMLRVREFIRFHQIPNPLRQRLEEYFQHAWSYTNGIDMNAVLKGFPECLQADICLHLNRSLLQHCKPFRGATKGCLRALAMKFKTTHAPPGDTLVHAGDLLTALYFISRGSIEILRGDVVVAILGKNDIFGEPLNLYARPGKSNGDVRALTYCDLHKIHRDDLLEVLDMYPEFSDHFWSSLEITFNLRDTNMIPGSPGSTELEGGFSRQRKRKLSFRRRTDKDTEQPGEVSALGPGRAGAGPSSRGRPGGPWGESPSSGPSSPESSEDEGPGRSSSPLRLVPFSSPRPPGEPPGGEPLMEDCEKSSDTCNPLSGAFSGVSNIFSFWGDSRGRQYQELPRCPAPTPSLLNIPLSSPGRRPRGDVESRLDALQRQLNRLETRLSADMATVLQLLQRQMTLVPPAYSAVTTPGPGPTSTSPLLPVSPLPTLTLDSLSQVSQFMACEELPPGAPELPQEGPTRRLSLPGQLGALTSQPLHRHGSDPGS
# Sequence of Melanin-concentrating hormone receptor 1 (Q99705 whole entry): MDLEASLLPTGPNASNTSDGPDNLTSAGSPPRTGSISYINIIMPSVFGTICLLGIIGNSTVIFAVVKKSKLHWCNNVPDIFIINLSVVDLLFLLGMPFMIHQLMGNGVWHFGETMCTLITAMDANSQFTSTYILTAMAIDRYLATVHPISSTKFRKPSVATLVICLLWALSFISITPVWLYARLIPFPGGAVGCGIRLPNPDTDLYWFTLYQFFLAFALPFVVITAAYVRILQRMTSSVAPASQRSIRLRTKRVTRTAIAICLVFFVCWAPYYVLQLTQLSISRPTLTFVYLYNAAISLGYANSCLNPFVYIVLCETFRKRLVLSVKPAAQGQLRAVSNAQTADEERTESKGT
# Sequence of Voltage-gated inwardly rectifying potassium channel KCNH2 (Q12809 whole entry): as the sequence (Q12809 whole entry) above
SMILES,IC50 [1] [nM],IC50 [2] [nM],Activity (U-937) [µM],IC50 [3] [nM],inhibition at 1 µM (hERG (KCNH2) [4]) [%],other results
Clc1ccc(-c2ccc(CCCNc3ccc(CN4CCCCC4)cc3)nn2)cc1,310,138,6.25,4,8,
CC(=O)NC1CCN(Cc2ccc(OCCCc3ccc(Cc4ccccc4)nn3)cc2)CC1,> 10000,> 10000,100,,13,
O=C(NCc1ccc(-c2ccc(Cl)cc2)cc1)Nc1ccc(CN2CCCCC2)cc1,511,29,,,,
OC1CCN(Cc2ccc(NCCCc3ccc(OCc4ccccc4)nn3)cc2)CC1,> 10000,> 10000,50,3,4,
O[C@@H]1CCCN(Cc2ccc(OCCCc3ccc(-c4ccc(Cl)cc4)nn3)cc2)C1,5470,595,6.25,15,13,
CN(C(=O)/C=C/c1ccc(-c2ccc(Cl)cc2)cc1)c1ccc(CN2CCCCC2)cc1,625,362,,634,,Ratio IC50 (CHO [5]): 1; Ratio IC50 (CHO [6]): 1
CN(CCCc1ccc(-c2ccc(Cl)cc2)cc1)c1ccc(CN2CCCCC2)cc1,419,646,,,,
COc1ccc(-c2ccc(CCCNc3ccc(CN4CCCCC4)cc3)nn2)cc1,962,1810,6.25,7,,pKa [7]: 9
COc1ccc(-c2ccc(CCCNc3ccc(CN4CCC(NC(C)=O)CC4)cc3)nn2)cc1,> 10000,> 10000,100,10,7,Tmax [8]: 1.5 h; MRT [9]: 4 h; AUC/dose (Rattus norvegicus [10]): 476 nM·h; Cmax/dose (Rattus norvegicus [11]): 83 nM; pKa [7]: 8.8
OCC1CCN(Cc2ccc(OCCCc3ccc(-c4ccc(Cl)cc4)nn3)cc2)CC1,1650,790,12.5,,,
Fc1ccc(-c2ccc(CCCNc3ccc(CN4CCCCC4)cc3)nn2)cc1,3740,34,,,,
O=C(CCc1ccc(-c2ccc(Cl)cc2)cc1)Nc1ccc(CN2CCCCC2)cc1,89,138,,38,,Ratio IC50 (CHO [5]): 2; Ratio IC50 (CHO [6]): 4
COc1ccc(-c2ccc(CCCNc3ccc(CN4CCCC4)cc3)nn2)cc1,1860,4540,,95,,
COc1ccc(-c2ccc(CCCNc3ccc(CN(C)C)cc3)nn2)cc1,1030,4580,,,,
COc1ccc(-c2ccc(CCCNc3ccc(CN4CCCC(O)C4)cc3)nn2)cc1 (stereo not drawn),> 10000,> 10000,25,,10,
O[C@@H]1CCCN(Cc2ccc(OCCCc3ccc(Oc4ccccc4)nn3)cc2)C1,> 10000,> 10000,,,,
OC1CCN(Cc2ccc(OCCCc3ccc(-c4ccc(Cl)cc4)nn3)cc2)CC1,> 10000,1410,25,,38,
O=C(COc1ccc(-c2ccc(Cl)cc2)cc1)Nc1ccc(CN2CCCCC2)cc1,446,91,,94,,Ratio IC50 (CHO [5]): 5; Ratio IC50 (CHO [6]): 1
CC(=O)NC1CCN(Cc2ccc(OCCCc3ccc(-c4ccc(F)cc4)nn3)cc2)CC1,4470,713,100,15,,
O=C(C#Cc1ccc(-c2ccc(Cl)cc2)cc1)Nc1ccc(CN2CCCCC2)cc1,225,,,,,
COc1ccc(-c2ccc(CCCNc3ccc(CN4CCC(O)CC4)cc3)nn2)cc1,> 10000,8820,50,20,10,pKa [7]: 8.6
CC(=O)NC1CCN(Cc2ccc(NCCCc3ccc(Oc4ccccc4)nn3)cc2)CC1,> 10000,> 10000,> 100,,,Cmax/dose (Rattus norvegicus [12]): 24 nM; AUC/dose (Rattus norvegicus [13]): 123 nM·h; MRT [14]: 6.4 h; Tmax [15]: 2.8 h; IC50 [16]: > 10000 nM
OC1CCN(Cc2ccc(OCCCc3ccc(-c4ccc(F)cc4)nn3)cc2)CC1,> 10000,242,,186,,
OC1CCN(Cc2ccc(NCCCc3ccc(Oc4ccccc4)nn3)cc2)CC1,> 10000,> 10000,50,24,,inhibition at 10 µM (hERG (KCNH2) [17]): 35%; pKa [7]: 9.1
COc1ccc(-c2ccc(CCCNc3ccc(CN4CCOCC4)cc3)nn2)cc1,> 10000,> 10000,12.5,20,5,pKa [7]: 7.6
N#Cc1ccc(-c2ccc(CCCNc3ccc(CN4CCCCC4)cc3)nn2)cc1,1920,1460,,,,
OCC1CCN(Cc2ccc(OCCCc3ccc(Oc4ccccc4)nn3)cc2)CC1,2110,> 10000,100,,8,
CC(=O)NC1CCN(Cc2ccc(OCCCc3ccc(Oc4ccccc4)nn3)cc2)CC1,> 10000,9650,100,10,,AUC/dose (Rattus norvegicus [18]): 175 nM·h; MRT [19]: 2.9 h; Tmax [20]: 0.8 h; inhibition at 10 µM (hERG (KCNH2) [17]): 13%; Cmax/dose (Rattus norvegicus [21]): 531 nM
O=C(/C=C/c1ccc(-c2ccc(Cl)cc2)cc1)Nc1ccc(CN2CCCCC2)cc1,401,1930,,16,,Ratio IC50 (CHO [5]): 25; Ratio IC50 (CHO [6]): 121
Clc1ccc(-c2ccc(CCCNc3ccc(CN4CCCCC4)cc3)cc2)cc1,325,680,,3,76,Ratio IC50 (CHO [5]): 110; Ratio IC50 (CHO [6]): 230

# From ChEMBL document CHEMBL3600324, “Design, synthesis and evaluation of MCH receptor 1 antagonists--Part II: Optimization of pyridazines toward reduced phospholipidosis and hERG inhibition” (Bioorg Med Chem Lett, 2015)
